Patent publication US20210154190A1, “SHP2 INHIBITOR COMPOSITIONS AND METHODS FOR TREATING CANCER” (Revolution Medicines, Inc., priority 2018, published 2021)
Substitutions are numbered along the chain they refer to. “And” between values parts separate entries of the source, which are not always exact repeats. Identical values can stand only once. Like-named read-outs stand apart in the source and are kept apart here.

How the values were obtained:
[1] = molecular target: T1, SHP2 P491S (Homo sapiens, UniProt Q06124, P491S); assay: EGF-induced pERK AlphaLISA in T-REx-293-SHP2 cells, P491S; format: cell-based; conditions: Variant P491S
T1 construct: expressed in transfected cells; host or cells: Flp-In T-REx-293 (T-REx-293-SHP2)
Method: An experimental system was creating to test the activity of SHP2 mutants on an isogenic background (FIG. 6). The Flp-In T-REx-293 cell line was obtained from Gibco® and cultivated in high glucose DMEM™ containing 2 mM L-glutamine (Hyclone®), supplemented with 10% FBS (Hyclone®), 1% penicillin/streptomycin (Gibco®), 100 μg/mL Zeocin™ (Gibco®), and 15 μg/mL blasticidin (Gibco®) in a humidified cell culture incubator at 37° C., 5% CO2.
Wild type or mutant SHP2 variants were synthesized and subcloned into the pcDNA5/FRT/TO vector (ThermoFisher). Plasmids were co-transfected with the pOG44 Flp recombinase expression plasmid (ThermoFisher®) into Flp-In T-REx-293 cells using X-tremegene 9 DNA transfection reagent (Sigma®), according to the manufacturer's instructions. […]
For the final 5 minutes of drug treatment, cells were stimulated with 50 ng/mL Epidermal Growth Factor (Sigma®). […] Samples were read using an EnVision Multilabel Plate Reader (Perkin Elmer®) using standard AlphaLISA settings. Assay data was plotted and EC50 values were determined using four-parameter concentration-response model in GraphPad Prism 7. […]

[2] = molecular target: T2, human SHP2-FL F285S (Homo sapiens, UniProt Q06124, F285S); assay: SHP2 allosteric inhibition assay (DiFMUP), F285S; format: biochemical
T2 sequence (Q06124 1-593 F285S): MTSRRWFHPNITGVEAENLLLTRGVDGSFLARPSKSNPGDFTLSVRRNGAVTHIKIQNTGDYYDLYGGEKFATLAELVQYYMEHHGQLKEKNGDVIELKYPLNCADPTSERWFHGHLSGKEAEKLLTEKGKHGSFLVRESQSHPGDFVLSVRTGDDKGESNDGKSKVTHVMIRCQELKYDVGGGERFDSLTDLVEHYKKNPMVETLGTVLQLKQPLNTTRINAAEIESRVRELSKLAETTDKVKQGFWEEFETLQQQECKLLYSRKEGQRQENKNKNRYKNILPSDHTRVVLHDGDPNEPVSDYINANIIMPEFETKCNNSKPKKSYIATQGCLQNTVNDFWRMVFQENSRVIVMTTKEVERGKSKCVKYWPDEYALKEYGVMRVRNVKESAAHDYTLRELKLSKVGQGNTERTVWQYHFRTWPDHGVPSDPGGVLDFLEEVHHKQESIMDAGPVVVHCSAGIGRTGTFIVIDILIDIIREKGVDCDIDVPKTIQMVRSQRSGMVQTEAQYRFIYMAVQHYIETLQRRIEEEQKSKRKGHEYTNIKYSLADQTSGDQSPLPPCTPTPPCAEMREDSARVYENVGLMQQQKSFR
Method: (§1) Full-length SHP2 is allosterically activated through binding of bis-tyrosyl-phorphorylated peptides to its Src Homology 2 (SH2) domains. The latter activation step leads to the release of the auto-inhibitory interface of SHP2, which in turn renders the SHP2 protein tyrosine phosphatase (PTP) active and available for substrate recognition and reaction catalysis. The catalytic activity of SHP2 was monitored using the surrogate substrate DiFMUP in a prompt fluorescence assay format.
(§2) […] […] 50 μl stop solution (0.1 mM sodium pervanadate) was added to each well, the plate was shaken briefly to mix, and read in endpoint mode on a SpectraMax M5 plate reader (Molecular Devices) using excitation and emission wavelengths of 340 nm and 450 nm. Data was imported into GraphPad Prism. Plots of fluorescence intensity vs. log Molar [compound] were created and modeled with a 3-parameter sigmoidal concentration response equation in order to estimate IC50.
(§3) Reactions were then allowed to proceed for 30 minutes and stopped by the addition of a phosphatase inhibitor, sodium pervanadate. De-phosphorylation of DiFMUP results in production of a fluorescent product. Product fluorescence was determined and plotted as a function of compound concentration in order to determine the IC50 for each compound on each mutant using a four parameter sigmoidal dose response function in Prism (GraphPad).
(§4) NsCs mimics the role of the cytosolic domain of a protein tyrosine kinase in this model system.

[3] = molecular target: T3, human SHP2-FL P491S (Homo sapiens, UniProt Q06124, P491S); assay: SHP2 allosteric inhibition assay (DiFMUP), P491S; format: biochemical
T3 sequence (Q06124 1-593 P491S): T2 sequence (Q06124 1-593 F285S) with S285F, P491S
Method: as §1, §2, §3, §4

Structure (SMILES): Cc1nc(N2CCC3(CC2)CO[C@@H](C)[C@H]3N)c(CO)nc1-c1cccc(Cl)c1Cl [Compound B]
- Cellular sensitivity [1]: no (Sensitive if IC50 < 2000 nM)
- Biochemical sensitivity ([2]; Variant F285S): yes (Sensitive if IC50 < 2000 nM)
- Biochemical sensitivity ([3]; Variant P491S): no (Sensitive if IC50 < 2000 nM)

Structure (SMILES): Nc1nc(N2CCC3(CCC[C@H]3N)CC2)cnc1Sc1ccnc(Cl)c1Cl [Compound 1]
- IC50 ([2]; IC50 (nM), SHP2 F285S 0.5 μM NsCs peptide (Activated), human SHP2-FL F285S, 0.5 μM NsCs peptide (activated)): 3.76 nM and 9.08 nM and 8.38 nM and 15.1 nM
- IC50 ([2]; human SHP2-FL F285S alone, no peptide (non-activated), read-out: IC50 (nM), SHP2 F285S No Peptide Control (Non-Activated)): 1.57 nM and 1.55 nM and 1.04 nM and 1.19 nM
- IC50 ([2]; human SHP2-FL F285S alone, no peptide (non-activated), read-out: pIC50, SHP2 F285S No Peptide Control (Non-Activated) (converted)): 1.55 nM and 1.05 nM and 1.2 nM
- IC50 ([2]; pIC50, SHP2 F285S 0.5 μM NsCs peptide (Activated), human SHP2-FL F285S, 0.5 μM NsCs peptide (activated)): 3.72 nM and 9.12 nM and 8.32 nM and 15.1 nM
- IC50 ([3]; IC50 (nM), SHP2 P491S 0.5 μM NsCs peptide (Activated), human SHP2-FL P491S, 0.5 μM NsCs peptide (activated)): > 10000 nM and 10600 nM and 7670 nM
- IC50 ([3]; human SHP2-FL P491S alone, no peptide (non-activated), read-out: IC50 (nM), SHP2 P491S No Peptide Control (Non-Activated)): 258 nM and 274 nM and 253 nM and 282 nM
- IC50 ([3]; human SHP2-FL P491S alone, no peptide (non-activated), read-out: pIC50, SHP2 P491S No Peptide Control (Non-Activated) (converted)): 257 nM and 275 nM and 251 nM and 282 nM
- IC50 ([3]; pIC50, SHP2 P491S 0.5 μM NsCs peptide (Activated), human SHP2-FL P491S, 0.5 μM NsCs peptide (activated)): > 10000 nM and 10700 nM and 7590 nM
